Results taken from US9399133B2, “Non-invasive automated electrical control systems and methods for monitoring animal conditions” (Rhode Island Board of Education, State of Rhode Island and …, priority 2012, dated 2016).

System: status epilepticus (SE) induced by lithium-pilocarpine (LP)
Experiment: Status epilepticus induced by lithium-pilocarpine in rats receiving TFS, alone and combined with subeffective doses of diazepam
Type: in vivo
Source text: This study was designed to evaluate status epilepticus (SE) induced by lithium-pilocarpine (LP) in rats receiving TFS, alone and combined with subeffective doses of diazepam, an antiepileptic drug that belongs to the group of benzodiazepines. Diazepam is currently considered one of the drugs of choice to stop SE.

[1] = LP+TFS+DZP group compared with LP, LP+DZP and LP+TFS groups, p<0.001

## CN1C(=O)CN=C(c2ccccc2)c2cc(Cl)ccc21 [diazepam]
[1]
  latency to mild generalized seizure: significantly increased
  latency to the establishment of the SE: significantly increased
  latency to the first forelimb clonus: significantly increased
Subeffective dose of diazepam combined with TFS (LP+TFS+DZP group), p<0.0001 vs LP, p<0.003 vs LP+DZP
  total protection against LP-induced seizures and SE, animals: 62%
Subeffective doses of diazepam administered prior to the pilocarpine, without TFS, in comparison to the LP group
  latency and incidence of LP-induced behavioral alterations: Non-significant changes
Subeffective doses of diazepam prior to pilocarpine, without TFS (LP+DZP group)
  rats presenting seizures and SE: All rats presented seizures and SE
